Results taken from US9803223B2, “Coryneform bacterium transformant with improved aniline productivity and process for producing aniline using the same” (RESEARCH INSTITUTE OF INNOVATIVE TECHNOLOGY FOR THE EARTH, priority 2013, dated 2017).
“Also recorded” adds a separate entry of the source.

Legend:
[1] = test system: Corynebacterium glutamicum R; experiment: Influence of aniline addition on aerobic growth; assay type: cell-based; details: for growth of Corynebacterium glutamicum: aerobic culture 33° C., OD610
Method: Corynebacterium glutamicum R was applied to A agar medium (2 g of (NH2)2CO3 7 g of (NH4)2SO4, 0.5 g of KH2PO4, 0.5 g of K2HPO4, 0.5 g of MgSO4.7H2O, 1 mL of 0.06% (w/v) Fe2SO4.7H2O+0.042% (w/v) MnSO4.2H2O, 1 mL of 0.02% (w/v) biotin solution, 2 mL of 0.01% (w/v) thiamin solution, 2 g of yeast extract, 7 g of vitamin assay casamino acid, 40 g of glucose, and 15 g of agar were suspended in 1 L of distilled water) and was left stand in the dark at 33° C. for 15 hours.
An inoculation loop of the Corynebacterium glutamicum R grown on a plate as above was inoculated into a test tube containing 10 mL of A liquid medium (2 g of (NH2)2CO3 7 g of (NH4)2SO4, 0.5 g of KH2PO4, 0.5 g of K2HPO4, 0.5 g of MgSO4.7H2O, 1 mL of 0.06% (w/v) Fe2SO4.7H2O+0.042% (w/v) MnSO4.2H2O, 1 mL of 0.02% (w/v) biotin solution, 2 mL of 0.01% (w/v) thiamin solution, 2 g of yeast extract, 7 g of vitamin assay casamino acid, and 40 g of glucose were suspended in 1 L of distilled water) and was aerobically cultured with shaking at 33° C. for 15 hours.
(§1) The Corynebacterium glutamicum R grown in the above conditions was inoculated into 10 mL of A liquid medium in such a way that the initial bacterial cell concentration would be OD610=0.1, aniline was added at the same time in such a way that the final concentration would be 0, 20, 40, 60, or 80 mM, and aerobic culture was performed with shaking at 33° C. The growth of the bacterial cells was determined by absorbance measurement at OD610.
The vertical axis of FIG. 3 indicates OD610.

Escherichia coli HST02 = experiment: Growth inhibition experiment in aerobic culture, influence of aniline; assay type: cell-based; details: for growth of Escherichia coli HST02: aerobic culture 37° C., OD610
Method: A growth inhibition experiment in aerobic culture was performed to examine the influence of aniline on Escherichia coli.
Escherichia coli HST02 was applied to LB agar medium (1% polypeptone, 0.5% yeast extract, 0.5% NaCl and 1.5% agar) and was left stand in the dark at 37° C. for 15 hours.
An inoculation loop of the Escherichia coli HST02 grown on a plate as above was inoculated into a test tube containing 10 mL of LB liquid medium (1% polypeptone, 0.5% yeast extract, and 0.5% NaCl), and aerobic culture was performed with shaking at 37° C. for 13 hours.
as §1, with “The Escherichia coli HST02” for “The Corynebacterium glutamicum R”, “into 100” for “into 10”, “of LB” for “of A”, “at 37°” for “at 33°”, “OD610. […] The vertical axis of FIG. 2 indicates OD610.” for “OD610.”

## Nc1ccccc1 [aniline]
[1]; 40 mM aniline
  growth of Corynebacterium glutamicum: hardly affected
[1]; 60 mM aniline
  growth of Corynebacterium glutamicum: able to grow
[1]; aniline level increased up to 60 mM, aerobic culture
  growth of coryneform bacterium: can grow
Escherichia coli HST02; 20 mM aniline
  growth of Escherichia coli HST02: notably inhibited
Escherichia coli HST02; 40 mM aniline
  growth of Escherichia coli HST02: significantly inhibited; also recorded: significantly affected
Escherichia coli HST02; 60 mM aniline
  growth of Escherichia coli HST02: completely inhibited
Escherichia coli HST02; aniline level of 20 mM or higher, aerobic culture
  growth of Escherichia coli: greatly affected
